This is an account of results in US4260617A, “17-Cyclopropylmethyl-14-hydroxy-3-methoxymorphinan-6-one and method of treating pain with it” (SISA, Incorporated, priority 1979, dated 1981).

For assay [1] the following is noted: in words, prior art; cited from earlier work.
For assay [2], the system named is morphine effect in rat tail flick. Nature of the assay: Narcotic antagonist activity (modified rat tail flick test, antagonism of morphine). It counts as in vivo, male albino Wistar rats. Conditions: for ED50: Rattus norvegicus, ip, 20 min, test drug intraperitoneally, rats, ED80 dose of morphine s.c. ten minutes later, retested 20 minutes after morphine, read-out: AD50 (the source's name). The method, then:
The narcotic anatagonist effects of test compounds were determined by a modification of the rat tail flick procedure of Harris and Pierson (J. Pharmacol. Exp. Ther. 143: 141 [1964]).
Male albino Wistar rats (100-120 g) were used for this study. A rat's tail is so placed so as to cover a photocell. Heat is applied by a lamp in a reflector with a timer being connected to the lamp and photocell so that the timer goes on when the light is turned on and is turned off when the photocell is uncovered. A rheostat, incorporated into a heating lamp, is used to adjust the intensity of the light fallng on the tail of the rat such that the rat's control reaction time is from two to four seconds. Animals with a control reaction time outside this range are rejected. The rheostat adjustment is made only if a significant proportion (more than 1 out of every 10 rats) of the reaction times are outside the range of 1.8 to 5.8 seconds. Groups of five rats were used each time, and two control times were determined at least 30 minutes apart. The test drug was given intraperitoneally and this was followed ten minutes later by an ED80 dose of morphine subcutaneously. The animals were retested at 20 minutes after the morphine injection. Control animals were given morphine only.
The data were calculated as follows: [formula]
The data were plotted on log-probit paper and AD50 values, i.e., the dose required to inhibit the morphine effect by 50% within 95% confidence limits, were determined by the method of Litchfield and Wilcoxon.
On the technique in general: Thermal pain tests record how soon the animal reacts.

The subject of assay [3] is acetic acid induced writhing in mice. Nature of the assay: Acetic acid mouse writhing test (analgesic effect). It counts as in vivo, male CD-1 mice. Conditions: for ED50: Mus musculus, sc, subcutaneous, mice, acetic acid i.p. 15 minutes post drug, writhes in 20 minute interval; for ED50/AD50: ratio of mouse writhing ED50 to rat tail flick AD50. The method, then:
The analgesic effects of test compounds were determined in mice by use of the acetic acid writhing test described by B. J. R. Whittle, Brit. J. Pharmacol., 22: 296 (1964). In this test at least three groups of five male CD-1 mice each were given subcutaneous doses of the test drug dissolved in either distilled water or distilled water acidified with HCl depending on the solubility of the compound. In all cases, 0.4 milliliter of a 0.75% V/V acetic acid in distilled water solution was administered intraperitoneally 15 minutes post drug. The number of writhes in a 20 minute interval were determined and compared with the number of writhes in control groups which had received only acetic acid.
Percent inhibition of writhing was calculated as: [formula]
The ED50 dose, i.e., the dose required to reduce the number of writhes by 50%, was determined graphically from a plot of % inhibition as a probit versus log dose. Confidence limits of 95% were calculated on the basis of those results falling in the range 16-84% inhibition. See Litchfield, J. T. and Wilcoxon, F., J. Pharmacol. Exp. Ther., 96, 99-113, (1949).
On the technique in general: In writhing tests, fewer writhes than in controls are read as antinociception.

`O=C1CCC2(O)C3Cc4ccc(O)cc4C2(CCN3CC2CC2)C1` (stereo not shown): in assay [1], the duration of action result is given as “very long acting” and the “potency relative to A, cyclazocine or naloxone” value is on record as “more potent than A (above), cyclazocine or naloxone”.

`COc1ccc2c(c1)[C@]13CCN(CC4CC4)[C@H](C2)[C@]1(O)CCC(=O)C3.Cl` [179-A-19, 17-cyclopropylmethyl-14-hydroxy-3-methoxymorphinan-6-one hydrochloride]: the ED50 in assay [2] was determined as 0.5 mg/kg; in assay [3], 0.3 mg/kg. For the same molecule, the “more potent as an analgesic, by a factor” value in assay [3] (179-A-19 versus 179-A-20) was “greater than 7”. The ED50/AD50 in assay [3] is given as 0.6.

In the case of `Cl.O=C1CC[C@@]2(O)[C@H]3Cc4ccc(O)cc4[C@@]2(CCN3CC2CC2)C1` [179-A-20, 17-cyclopropylmethyl-3,14-dihydroxymorphinan-6-one hydrochloride], the “more potent in terms of narcotic antagonist activity, by a factor” value in assay [2] (179-A-20 versus 179-A-19) is “about 6”. Further, the figures for the ED50 in assay [2] and in assay [3] were 0.082 mg/kg and 2.2 mg/kg, respectively. In addition, the ED50/AD50 in assay [3] is on record as 26.83.

As to `Oc1ccc2c(c1)C13CCCCC1(O)C(C2)N(CC1CC1)CC3` (stereo not shown) [A], the “analgesic / narcotic antagonist activity” value in assay [1] is recorded as “essentially a narcotic antagonist”.

For the molecule `Oc1ccc2c(c1)C13CCCCC1(O)C(C2)N(CC1CCC1)CC3` (stereo not shown) [B], in assay [1], the “analgesic / narcotic antagonist activity” value was “both analgesic and narcotic antagonist activity”.

As to `C[C@H]1[C@H]2Cc3ccc(O)cc3[C@]1(C)CCN2CC1CC1` [cyclazocine], the “analgesic / narcotic antagonist activity” value in assay [1] is listed as “mixed analgesic/narcotic antagonist activity”.
